In article PMC11234460, “In Silico Discovery of Stapled Peptide Inhibitor Targeting the Nur77‐PPARγ Interaction and Its Anti‐Breast‐Cancer Efficacy” (Advanced Science, 2024):
Where a SMILES comes first, the peptide text is derived from it. Bridges are numbered along the chain shown (N, C = ends). [ ]: non-standard residue; d: D form. S5 = C=CCCC[C@](C)(N)C(=O)O

How the values were obtained:
[1] = molecular target: T1, Nur77-LBD (Homo sapiens, UniProt P22736); test: Surface plasmon resonance (SPR), Biacore T200; assay type: binding; settings: read-out: ka (SPR)
T1 construct: The LBD fragment of human Nur77 (residues 351–598), tagged with an N‐terminal His6‐tag; His6 (N); made in house; host or cells: Escherichia coli BL21(DE3)
Experimental: ST‐CY14 with Nur77‐LBD was detected by SPR using the Biacore T200 system at 25 °C. Recombinant human Nur77‐LBD protein was immobilized on an activated carboxymethylated 5 sensor chip (GE Healthcare) using the amine coupling method. Gradient concentrations of […] were injected at a flow rate of 30 µL min^−1 in a running buffer (1% DMSO in PBS). The results were analyzed with Biacore evaluation software (T200 version 2.0). The data were fitted to the 1:1 Langmuir binding model, and kinetic parameters were derived.

[2] = system: MDA-MB-231 cells; test: Scratch (wound-healing) assay; assay type: cell-based; settings: MDA-MB-231, 12 h
Experimental: MCF7 and MDA‐MB‐231 cells were seeded in 6‐well plates and cultured overnight. Once the cell density reached 90%, a line was scratched along the center of the 6‐well plate and images were taken randomly in the scratch domain under a microscope. The cells in each well were then treated with peptides of varying concentrations for 12 h, after which images were taken again in the scratch domain. The formula used to calculate the scratch healing rate was as follows: Scratch healing rate (%) = [(Scratch area at 0 h – Scratch area at 12 h) […] Scratch area at 0 h] × 100%.

[3] = system: MDA-MB-231-GFP tumor tissue; test: Transcriptome analysis of xenograft tumor tissue; assay type: in vivo, mouse; settings: 10 mg group
Experimental: To establish the bone metastasis tumor model, 1×10^5 cells were injected into the left ventricle of each mouse (7–8 weeks old), and surgery was monitored using a cardiac ultrasound instrument. The mice were randomly divided into three groups and treated with PBS (control group, n = 6), 5 mg kg^−1 ST‐CY14 (n = 6), and 10 mg kg^−1 ST‐CY14 (n = 6) Tumor cell metastasis was monitored using an in vivo imaging instrument (IVIS Spectrum, PerkinElmer, USA). by intraperitoneal injection of 20 mg kg^−1 D‐luciferin. The mice were treated with ST‐CY14 via intravenous injection using a 100 µL PBS solution every 2 days starting on the designated day after tumor cell injection. Bone tissue with MDA‐BoM‐1833 cell metastasis was obtained and stained for TRAP. The mice sera were collected and analyzed for BSP and β‐CTx levels using ELISA (Lengton, BPE10823, BPE10438). For the orthotopic xenograft tumor model, 3×10^6 cells were injected into the fourth pair of breast pads on the left side of the mouse (4–5 weeks old). The mice were treated with ST‐CY14 every two days once the tumor volume reached 30–50 mm^3, with the same groups as in the bone metastasis tumor model. The tumors were collected and stained for H&E, Ki‐67, and TUNEL assays, which were conducted by Wuhan Servicebio Technology Co., Ltd. Major organs (heart, liver, spleen, lung, and kidney) were also collected for H&E analysis by Wuhan Servicebio Technology Co., Ltd. The Transcriptome and LC/MS targeted lipid metabolome were sequenced by OE Biotech, Inc., Shanghai, China. To evaluate the efficacy of Csn‐B in inhibiting breast cancer bone metastasis, an animal model was established as described above. The mice were randomly divided into three groups and treated with PBS (control group, n = 6), 10 mg kg^−1 ST‐CY14 (n = 6) in 100 µL PBS solution, and 5 mg kg^−1 ST‐CY14 (n = 6) in a 100 µL mixed solution (5% DMSO, 20% PEG 400, 5% Tween 80, and 70% normal saline) via intravenous injection every 2 days starting on the designated day after tumor cell injection.

[4] = Solubility test in PBS; assay type: physicochemical; settings: PBS buffer, aqueous buffer, 1 mg in 50 µL, gradient diluted from 20 to 0.078125 mg mL^−1, OD at 600 nm (turbidity), plate reader
Experimental: Mix 1 mg ST‐CY14 or Csn‐B (Shanghai Sunny Biotech) in 50 µL PBS buffer, and then transfer 40 µL the suspension to a 96‐well plate. The suspension was gradient diluted from 20 to 0. 07 8125 mg mL^−1. OD values were measured at 600 nm on a Cytation 5 (Biotek, USA) plate reader. PBS was set as a blank control.

T1 sequence (P22736 351-598): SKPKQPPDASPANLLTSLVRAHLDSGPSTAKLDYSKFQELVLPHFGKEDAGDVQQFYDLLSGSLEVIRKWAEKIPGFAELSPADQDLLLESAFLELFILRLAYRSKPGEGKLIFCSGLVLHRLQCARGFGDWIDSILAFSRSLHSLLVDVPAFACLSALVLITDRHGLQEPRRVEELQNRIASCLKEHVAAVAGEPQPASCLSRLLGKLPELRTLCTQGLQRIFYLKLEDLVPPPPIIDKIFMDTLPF

## C[C@@H](O)[C@@H]1NC(=O)[C@H](CCCNC(=N)N)NC(=O)[C@H](CCCNC(=N)N)NC(=O)[C@@](C)(NC(=O)[C@H](Cc2ccccc2)NC(=O)CNC(=O)[C@H](CCCCN)NC(=O)[C@H](CS)NC(=O)CNC(=O)[C@H](CCC(=O)O)NC(=O)[C@@H](N)CS)CCCC=CCCC[C@@](C)(C(=O)N[C@@H](CCCNC(=N)N)C(=O)N[C@@H](Cc2ccc(O)cc2)C(=O)N[C@@H](Cc2ccc(O)cc2)C(=O)NCC(=O)N[C@@H](CCCNC(=N)N)C(=O)N[C@@H](CCCCN)C(=O)N[C@@H](CCCCN)C(=O)N[C@@H](CCCNC(=N)N)C(=O)N[C@@H](CCCNC(=N)N)C(=O)N[C@@H](CCC(N)=O)C(=O)N[C@@H](CCCNC(=N)N)C(=O)N[C@@H](CCCNC(=N)N)C(=O)N[C@@H](CCCNC(=N)N)C(N)=O)NC1=O [ST-CY14] (H-CEGCKGF[S5]RRT[S5]RYYGRKKRRQRRR-NH2; staple 8-12)
[1]
  kon: 1.6e+06 M⁻¹ s⁻¹
[2]
  Scratch healing: suppressed the scratch healing
[3]; sample 1
  AGT expression in tumor tissue (transcriptome): 0.07902
  ANGPTL4 expression in tumor tissue (transcriptome): 3.636
  CD36 expression in tumor tissue (transcriptome): 0
  CD74 expression in tumor tissue (transcriptome): 0.3461
  CNR1 expression in tumor tissue (transcriptome): 0.02158
  CYP3A5 expression in tumor tissue (transcriptome): 0.3686
  FABP4 expression in tumor tissue (transcriptome): 0.03159
  INSL5 expression in tumor tissue (transcriptome): 0
  ITGAL expression in tumor tissue (transcriptome): 0.005294
  OAS1 expression in tumor tissue (transcriptome): 0.1526
  OLAH expression in tumor tissue (transcriptome): 0.7465
  PLIN1 expression in tumor tissue (transcriptome): 0.1271
  POLR2J3 expression in tumor tissue (transcriptome): 0.1542
  PTPRC expression in tumor tissue (transcriptome): 0.09088
  PYY expression in tumor tissue (transcriptome): 0.3061
  RNF152 expression in tumor tissue (transcriptome): 0.2243
  SLX1B expression in tumor tissue (transcriptome): 0.4199
  UTS2B expression in tumor tissue (transcriptome): 0.2634
  VAMP7 expression in tumor tissue (transcriptome): 0.394
  ZNF404 expression in tumor tissue (transcriptome): 0.5136
  ZNF429 expression in tumor tissue (transcriptome): 0.01399
[3]; sample 2
  AGT expression in tumor tissue (transcriptome): 0.282
  ANGPTL4 expression in tumor tissue (transcriptome): 6.216
  CD36 expression in tumor tissue (transcriptome): 0.00582
  CD74 expression in tumor tissue (transcriptome): 0.2008
  CNR1 expression in tumor tissue (transcriptome): 0.02567
  CYP3A5 expression in tumor tissue (transcriptome): 0.2054
  FABP4 expression in tumor tissue (transcriptome): 0
  INSL5 expression in tumor tissue (transcriptome): 1.442
  ITGAL expression in tumor tissue (transcriptome): 0
  OAS1 expression in tumor tissue (transcriptome): 0.4448
  OLAH expression in tumor tissue (transcriptome): 0.9577
  PLIN1 expression in tumor tissue (transcriptome): 0.01163
  POLR2J3 expression in tumor tissue (transcriptome): 0.3872
  PTPRC expression in tumor tissue (transcriptome): 0.01081
  PYY expression in tumor tissue (transcriptome): 1.722
  RNF152 expression in tumor tissue (transcriptome): 0.1875
  SLX1B expression in tumor tissue (transcriptome): 0.5583
  UTS2B expression in tumor tissue (transcriptome): 0.2673
  VAMP7 expression in tumor tissue (transcriptome): 0.4688
  ZNF404 expression in tumor tissue (transcriptome): 0.685
  ZNF429 expression in tumor tissue (transcriptome): 0.06657
[3]; sample 3
  AGT expression in tumor tissue (transcriptome): 0.02516
  ANGPTL4 expression in tumor tissue (transcriptome): 3.683
  CD36 expression in tumor tissue (transcriptome): 0.004672
  CD74 expression in tumor tissue (transcriptome): 0.1451
  CNR1 expression in tumor tissue (transcriptome): 0.07831
  CYP3A5 expression in tumor tissue (transcriptome): 0.312
  FABP4 expression in tumor tissue (transcriptome): 0.06034
  INSL5 expression in tumor tissue (transcriptome): 0.1867
  ITGAL expression in tumor tissue (transcriptome): 0
  OAS1 expression in tumor tissue (transcriptome): 0.2478
  OLAH expression in tumor tissue (transcriptome): 1.048
  PLIN1 expression in tumor tissue (transcriptome): 0
  POLR2J3 expression in tumor tissue (transcriptome): 0.1963
  PTPRC expression in tumor tissue (transcriptome): 0.04774
  PYY expression in tumor tissue (transcriptome): 0.5582
  RNF152 expression in tumor tissue (transcriptome): 0.2258
  SLX1B expression in tumor tissue (transcriptome): 0.5662
  UTS2B expression in tumor tissue (transcriptome): 0.1702
  VAMP7 expression in tumor tissue (transcriptome): 0.3548
  ZNF404 expression in tumor tissue (transcriptome): 0.3567
  ZNF429 expression in tumor tissue (transcriptome): 0.0501
[4]
  solubility: > 20 mg/mL
